Key:
[1] = target: T1, Ubiquitin-conjugating enzyme E2 N (Homo sapiens, UniProt P61088); experiment: Inhibition of UBE2N (unknown origin)
T1 sequence (P61088 whole entry): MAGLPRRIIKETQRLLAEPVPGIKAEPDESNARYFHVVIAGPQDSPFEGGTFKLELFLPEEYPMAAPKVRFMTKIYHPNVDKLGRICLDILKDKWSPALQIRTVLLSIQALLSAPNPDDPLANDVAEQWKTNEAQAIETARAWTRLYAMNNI

[2] = Inhibition of HDM2/p53 (unknown origin) protein-protein interaction; parameters: species or system Homo sapiens
[3] = target: T1, Ubiquitin-conjugating enzyme E2 N; experiment: Inhibition of UBE2N (unknown origin) by TR-FRET analysis

| Structure (SMILES) | IC50 [1] | IC50 [2] | IC50 [3] |
| --- | --- | --- | --- |
| CC1=CC(C)(C)[C@@H](/C=C\[C@@H](C)[C@H]2CC[C@H]3[C@@H]4C[C@H](OS(=O)(=O)O)[C@H]5C[C@H](O)[C@@H](OS(=O)(=O)O)C[C@]5(C)[C@H]4CC[C@]23C)[C@H]1CC[C@@H](C)[C@H]1CC[C@H]2[C@@H]3C[C@H](OS(=O)(=O)O)[C@H]4C[C@H](OS(=O)(=O)O)[C@@H](OS(=O)(=O)O)C[C@]4(C)[C@H]3CC[C@]12C [MANADOSTEROL A] | 0.09 µM | 160 µM | – |
| COC(=O)c1cc2c(cn1)[nH]c1ccc(O)cc12 | 16 µM | – | – |
| C[C@@H](N)[C@@H](O)C/C=C\C/C=C\C/C=C\C/C=C\C/C=C\C/C=C\CCCCCC[C@H](O)[C@@H](C)N [LEUCETTAMOL A] | – | 150 µM | – |
| C=C1CC(C)(C)[C@@H](/C=C\[C@@H](C)[C@H]2CC[C@H]3[C@@H]4C[C@H](OS(=O)(=O)O)[C@H]5C[C@@H](O)CC[C@]5(C)[C@H]4CC[C@]23C)[C@H]1CC(O)[C@@H](C)[C@H]1CC[C@H]2[C@@H]3C[C@H](OS(=O)(=O)O)[C@H]4C[C@H](OS(=O)(=O)O)[C@@H](OS(=O)(=O)O)C[C@]4(C)[C@H]3CC[C@]12C (stereo partly specified) | 0.13 µM | – | – |
| O=C(NCC1CCN(Cc2cccc(Cl)c2)CC1)[C@@H]1CCCN(c2ncnc3c2nc2n3CCCC2)C1 | – | – | 0.781 µM |
